{"source": "patent US4071411A", "about": "“Antitumor antibiotics aclacinomycins A and B [RD-9187A]” (priority 1974, dated 1978)", "key": {"hepatomas": {"system": "hepatomas", "test": "hepatomas in rats (summary in words)", "format": "in vivo"}, "ascitic hepatoma AH44": {"system": "ascitic hepatoma AH44", "test": "survival of Donryu rats grafted with ascitic hepatoma AH44", "format": "in vivo", "details": "2 mg./kg./day i.p., 10 consecutive days; control average survival 14.5 days"}, "leukemia L1210": {"system": "leukemia L1210", "test": "leukemia L1210 in mice (summary in words)", "format": "in vivo"}, "[1]": {"system": "lymphoma 6C3HED/OG, ascitic type", "test": "ascitic lymphoma 6C3HED/OG in CH3/He mice", "format": "in vivo", "details": "for T/C (Survival ratio: Tested/control) / 62 day survivors / MST (Mean survival time): 10 days; for 62 day survivors: control 0/3; for MST (Mean survival time): control 20.5"}, "Ehrlich carcinoma": {"system": "Ehrlich carcinoma", "test": "growth of Ehrlich carcinoma in mice", "format": "in vivo", "details": "ascites and solid forms"}, "[2]": {"system": "lymphoma 6C3HED/OG, solid type", "test": "growth of solid lymphoma 6C3HED/OG in CH3/He mice", "format": "in vivo", "details": "for Inhibition / 21 day survivors / Tumor weight/Body weight / Tumor weight: 10 days; for 21 day survivors: control 7/9; for Tumor weight/Body weight: control 29.6; for Tumor weight: control 7045"}, "L1210 leukemia cells": {"system": "L1210 leukemia cells", "test": "survival of mice with L1210 leukemia, treatment days 1, 5 and 9", "format": "in vivo", "details": "for 30 day survivors / Mean survival time: days 1, 5 and 9; for 30 day survivors: control 0/10; for Mean survival time: control 10.4", "text": "Mice are inoculated intraperitoneally with a suspension of L1210 leukemia cells and treated with solutions of different concentrations of aclacinomycin A and 1, 5 and 9 days following the tumor implantation."}, "[3]": {"test": "acute toxicity, single injection", "format": "in vivo, Mouse", "details": "mouse, in vivo, single injection"}, "Mouse": {"system": "Mouse", "test": "acute toxicity, single injection", "format": "in vivo", "details": "mice"}, "[4]": {"system": "DNA synthesis (L1210 cells)", "test": "cells", "format": "cell-based, mice", "details": "Mus musculus, L1210, 1 h; 14C-precursor incorporation, 37° C., 60 min.; read-out: ID50, DNA synthesis"}, "[5]": {"details": "in vivo"}, "rabbits": {"system": "rabbits", "test": "lethal dose (LD50) on rabbits", "format": "in vivo"}, "hamsters": {"system": "hamsters", "test": "acute cardiac alterations in the electrocardiograms of hamsters / cardiotoxicity", "details": "hamster, in vivo"}, "Sarcoma 180": {"system": "Sarcoma 180", "test": "growth of Sarcoma 180 in mice", "format": "in vivo"}, "[6]": {"test": "cardiotoxicity (general statement)", "details": "in vivo"}}, "note": "Where two headings read alike, the source gives them in different places."}
{"smiles": "CCC1(O)CC(OC2CC(N(C)C)C(OC3CC(O)C(OC4CCC(=O)C(C)O4)C(C)O3)C(C)O2)c2c(cc3c(c2O)C(=O)c2c(O)cccc2C3=O)C1C(=O)OC", "note": "(stereo not shown) [Aclacinomycin A]", "values": [{"measurement": "inhibition of growth of hepatomas", "setting": "hepatomas", "result": "effective in inhibiting the growth"}, {"measurement": "survival 30 days after the experiment", "setting": "ascitic hepatoma AH44", "result": "all the treated rats were alive 30 days after the experiment"}, {"measurement": "inhibition of growth of leukemia L1210", "setting": "leukemia L1210", "result": "effective in inhibiting the growth"}, {"measurement": "life prolongation, mice inoculated with leukemia L1210", "setting": "leukemia L1210", "result": "markedly prolong the lives"}, {"measurement": "T/C (Survival ratio: Tested/control)", "setting": "[1]; 0.5 mg./kg./day i.p.", "result": 73, "unit": "%"}, {"measurement": "62 day survivors", "setting": "[1]; 0.5 mg./kg./day i.p.", "result": "0/3"}, {"measurement": "MST (Mean survival time)", "setting": "[1]; 0.5 mg./kg./day i.p.", "result": 15.0, "unit": "days"}, {"measurement": "T/C (Survival ratio: Tested/control)", "setting": "[1]; 1 mg./kg./day i.p.", "result": 183, "unit": "%"}, {"measurement": "62 day survivors", "setting": "[1]; 1 mg./kg./day i.p.", "result": "1/3"}, {"measurement": "MST (Mean survival time)", "setting": "[1]; 1 mg./kg./day i.p.", "result": 37.5, "unit": "days"}, {"measurement": "T/C (Survival ratio: Tested/control)", "setting": "[1]; 2 mg./kg./day i.p.", "result": 155, "unit": "%"}, {"measurement": "62 day survivors", "setting": "[1]; 2 mg./kg./day i.p.", "result": "0/3"}, {"measurement": "MST (Mean survival time)", "setting": "[1]; 2 mg./kg./day i.p.", "result": 31.8, "unit": "days"}, {"measurement": "T/C (Survival ratio: Tested/control)", "setting": "[1]; 4 mg./kg./day i.p.", "result": 98, "unit": "%"}, {"measurement": "62 day survivors", "setting": "[1]; 4 mg./kg./day i.p.", "result": "0/3"}, {"measurement": "MST (Mean survival time)", "setting": "[1]; 4 mg./kg./day i.p.", "result": 20.1, "unit": "days"}, {"measurement": "inhibition of growth of ascitic 6C3HED/OG tumor (in words)", "setting": "[1]; i.p. daily for 10 days", "result": "marked inhibition of the growth"}, {"measurement": "inhibition of growth of Ehrlich carcinoma", "setting": "Ehrlich carcinoma", "result": "effective in inhibiting the growth"}, {"measurement": "Inhibition", "setting": "[2]; 0.5 mg./kg./day i.p.", "result": 47.6, "unit": "%"}, {"measurement": "21 day survivors", "setting": "[2]; 0.5 mg./kg./day i.p.", "result": "3/3"}, {"measurement": "Tumor weight/Body weight", "setting": "[2]; 0.5 mg./kg./day i.p.", "result": 12.4, "unit": "%"}, {"measurement": "Tumor weight", "setting": "[2]; 0.5 mg./kg./day i.p.", "result": 3695, "unit": "mg"}, {"measurement": "Inhibition", "setting": "[2]; 1 mg./kg./day i.p.", "result": 64.5, "unit": "%"}, {"measurement": "21 day survivors", "setting": "[2]; 1 mg./kg./day i.p.", "result": "3/3"}, {"measurement": "Tumor weight/Body weight", "setting": "[2]; 1 mg./kg./day i.p.", "result": 9.5, "unit": "%"}, {"measurement": "Tumor weight", "setting": "[2]; 1 mg./kg./day i.p.", "result": 2501, "unit": "mg"}, {"measurement": "Inhibition", "setting": "[2]; 2 mg./kg./day i.p.", "result": 34.2, "unit": "%"}, {"measurement": "21 day survivors", "setting": "[2]; 2 mg./kg./day i.p.", "result": "3/3"}, {"measurement": "Tumor weight/Body weight", "setting": "[2]; 2 mg./kg./day i.p.", "result": 15.1, "unit": "%"}, {"measurement": "Tumor weight", "setting": "[2]; 2 mg./kg./day i.p.", "result": 4633, "unit": "mg"}, {"measurement": "Inhibition", "setting": "[2]; 4 mg./kg./day i.p.", "result": 28.7, "unit": "%"}, {"measurement": "21 day survivors", "setting": "[2]; 4 mg./kg./day i.p.", "result": "0/3"}, {"measurement": "Tumor weight/Body weight", "setting": "[2]; 4 mg./kg./day i.p.", "result": 19.5, "unit": "%"}, {"measurement": "Tumor weight", "setting": "[2]; 4 mg./kg./day i.p.", "result": 5023, "unit": "mg"}, {"measurement": "inhibition of growth of solid 6C3HED/OG tumor (in words)", "setting": "[2]; i.p. daily for 10 days", "result": "marked inhibition of the growth"}, {"measurement": "30 day survivors", "setting": "L1210 leukemia cells; 1.5 mg/kg/day", "result": "0/5"}, {"measurement": "Mean survival time", "setting": "L1210 leukemia cells; 1.5 mg/kg/day", "result": 12.6, "unit": "days"}, {"measurement": "30 day survivors", "setting": "L1210 leukemia cells; 3 mg/kg/day", "result": "2/5"}, {"measurement": "Mean survival time", "setting": "L1210 leukemia cells; 3 mg/kg/day", "result": 23.3, "unit": "days"}, {"measurement": "30 day survivors", "setting": "L1210 leukemia cells; 6 mg/kg/day", "result": "2/5"}, {"measurement": "Mean survival time", "setting": "L1210 leukemia cells; 6 mg/kg/day", "result": 21.7, "unit": "days"}, {"measurement": "30 day survivors", "setting": "L1210 leukemia cells; 12 mg/kg/day", "result": "0/5"}, {"measurement": "Mean survival time", "setting": "L1210 leukemia cells; 12 mg/kg/day", "result": 16.1, "unit": "days"}, {"measurement": "mean survival time of the treated mice (in words)", "setting": "L1210 leukemia cells; 6 and 3 mg./kg./day", "result": "increased considerably"}, {"measurement": "LD50", "setting": "[3]; ip, intraperitoneal", "result": 22.6, "unit": "mg/kg"}, {"measurement": "LD50", "setting": "[3]; intravenous", "result": 33.7, "unit": "mg/kg"}, {"measurement": "lethal dose (LD50), in words", "setting": "Mouse", "result": "high lethal dose"}, {"measurement": "IC50", "setting": "[4]", "result": 1.1, "unit": "µg/mL"}, {"measurement": "cardiotoxicity", "setting": "[5]", "result": "low cardiotoxicity"}, {"measurement": "lethal dose (LD50), in words", "setting": "rabbits", "result": "high lethal dose"}, {"measurement": "cardiotoxicity on hamsters", "setting": "hamsters", "result": "extremely low cardiotoxicity"}, {"measurement": "inhibition of growth of Sarcoma 180", "setting": "Sarcoma 180", "result": "effective in inhibiting the growth"}]}
{"smiles": "CCC1(O)CC(OC2CC(N(C)C)C(OC3CC4OC5CC(=O)C(C)OC5OC4C(C)O3)C(C)O2)c2c(cc3c(c2O)C(=O)c2c(O)cccc2C3=O)C1C(=O)OC", "note": "(stereo not shown) [Aclacinomycin B]", "values": [{"measurement": "inhibition of growth of leukemia L1210", "setting": "leukemia L1210", "result": "effective in inhibiting the growth"}, {"measurement": "life prolongation, mice inoculated with leukemia L1210", "setting": "leukemia L1210", "result": "markedly prolong the lives"}, {"measurement": "LD50", "setting": "[3]; ip, intraperitoneal", "result": 13.7, "unit": "mg/kg"}, {"measurement": "LD50", "setting": "[3]; intravenous", "result": 16.4, "unit": "mg/kg"}, {"measurement": "lethal dose (LD50), in words", "setting": "Mouse", "result": "high lethal dose"}, {"measurement": "IC50", "setting": "[4]", "result": 4, "unit": "µg/mL"}, {"measurement": "lethal dose (LD50), in words", "setting": "rabbits", "result": "high lethal dose"}, {"measurement": "cardiotoxicity on hamsters", "setting": "hamsters", "result": "extremely low cardiotoxicity"}, {"measurement": "cardiotoxicity", "setting": "[6]", "result": "low cardiotoxicity"}]}
